Test results: PubChem BioAssay (NCI)
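Each compound was tested at five concentrations against cells in 96-well plates for 48 hours. Abbreviation: GI50, concentration required for 50% inhibition of growth. At the TGI there is no net growth.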

Assays:
Assay in all cases: NCI tumour cell line growth inhibition, 48 h
[1] = system: ACHN renal
[2] = system: RPMI-8226 leukemia
[3] = system: SF-295 CNS
[4] = system: UACC-257 melanoma
[5] = system: MCF7 breast
[6] = system: U251 CNS
[7] = system: OVCAR-4 ovarian
[8] = system: CAKI-1 renal
[9] = system: HCT-116 colon
[10] = system: K-562 leukemia
[11] = system: HL-60(TB) leukemia
[12] = system: LOX IMVI melanoma
[13] = system: UO-31 renal
[14] = system: MOLT-4 leukemia
[15] = system: OVCAR-8 ovarian
[16] = system: NCI/ADR-RES ovarian
[17] = system: OVCAR-5 ovarian
[18] = system: SF-268 CNS
[19] = system: HCT-15 colon
[20] = system: BT-549 breast
[21] = system: HS 578T breast
[22] = system: MDA-MB-231 breast
[23] = system: OVCAR-3 ovarian
[24] = system: SNB-19 CNS
[25] = system: SK-MEL-2 melanoma
[26] = system: NCI-H522 lung
[27] = system: M14 melanoma
[28] = system: A498 renal
[29] = system: HOP-62 NSCLC
[30] = system: HOP-92 NSCLC
[31] = system: HT29 colon
[32] = system: T-47D breast
[33] = system: UACC-62 melanoma
[34] = system: SR leukemia
[35] = system: MALME-3M melanoma
[36] = system: SW-620 colon
[37] = system: 786-0 renal
[38] = system: PC-3 prostate
[39] = system: SN12C renal
[40] = system: SF-539 CNS
[41] = system: SK-MEL-5 melanoma
[42] = system: RXF 393 renal
[43] = system: KM12 colon
[44] = system: DU-145 prostate
[45] = system: A549 NSCLC
[46] = system: SK-OV-3 ovarian
[47] = system: SK-MEL-28 melanoma
[48] = system: MDA-MB-435
[49] = system: CCRF-CEM leukemia
[50] = system: HCC-2998 colon
[51] = system: COLO 205 colon
[52] = system: NCI-H23 lung
[53] = system: IGROV1 ovarian
[54] = system: SNB-75 CNS
[55] = system: NCI-H460 lung
[56] = system: NCI-H226 lung
[57] = system: EKVX NSCLC
[58] = system: TK-10 renal

## O=C1C=C(OCC=C(C(F)(F)F)C(F)(F)F)c2ccccc2C1=O
[1]
  GI50: 1.85 µM
  TGI: 4.01 µM
[2]
  GI50: 1.63 µM
  TGI: 4.29 µM
[3]
  GI50: 14.6 µM
  TGI: 30.3 µM
[4]
  GI50: 1.42 µM
  TGI: 2.77 µM
[5]
  GI50: 1.39 µM
  TGI: 3.94 µM
[6]
  GI50: 1.84 µM
  TGI: 3.83 µM
[7]
  GI50: 1.53 µM
  TGI: 2.91 µM
[8]
  GI50: 3.15 µM
  TGI: 10.4 µM
[9]
  GI50: 2.07 µM
  TGI: 5.08 µM
[10]
  GI50: 1.97 µM
  TGI: 5.42 µM
[11]
  GI50: 2.44 µM
  TGI: 6.49 µM
[12]
  GI50: 1.56 µM
  TGI: 3.46 µM
[13]
  GI50: 1.53 µM
  TGI: 3.1 µM
[14]
  GI50: 2.35 µM
  TGI: 5.38 µM
[15]
  GI50: 1.63 µM
  TGI: 3.12 µM
[16]
  GI50: 3.21 µM
  TGI: 14.7 µM
[17]
  GI50: 2.45 µM
  TGI: 5.87 µM
[18]
  GI50: 2.53 µM
  TGI: 7.42 µM
[19]
  GI50: 2.06 µM
  TGI: 5.7 µM
[20]
  GI50: 2.49 µM
  TGI: 6.64 µM
[21]
  GI50: 2.06 µM
  TGI: 7.21 µM
[22]
  GI50: 1.9 µM
  TGI: 4.2 µM
[23]
  GI50: 1.78 µM
  TGI: 3.39 µM
[24]
  GI50: 5.62 µM
  TGI: 19.5 µM
[25]
  GI50: 1.85 µM
  TGI: 4.06 µM
[26]
  GI50: 1.41 µM
  TGI: 2.92 µM
[27]
  GI50: 1.88 µM
  TGI: 3.87 µM
[28]
  GI50: 4.36 µM
  TGI: 16.6 µM
[29]
  GI50: 1.87 µM
  TGI: 3.69 µM
[30]
  GI50: 1.9 µM
  TGI: 4.37 µM
[31]
  GI50: 2.4 µM
  TGI: 5.47 µM
[32]
  GI50: 0.777 µM
  TGI: 3.7 µM
[33]
  GI50: 1.7 µM
  TGI: 4.1 µM
[34]
  GI50: 2.02 µM
  TGI: 7.43 µM
[35]
  GI50: 1.56 µM
  TGI: 3.11 µM
[36]
  GI50: 1.92 µM
  TGI: 3.91 µM
[37]
  GI50: 3.97 µM
  TGI: 13.9 µM
[38]
  GI50: 1.92 µM
  TGI: 5.91 µM
[39]
  GI50: 1.09 µM
  TGI: 2.37 µM
[40]
  GI50: 1.84 µM
  TGI: 3.63 µM
[41]
  GI50: 1.51 µM
  TGI: 2.95 µM
[42]
  GI50: 1.69 µM
  TGI: 3.18 µM
[43]
  GI50: 1.67 µM
  TGI: 3.25 µM
[44]
  GI50: 1.75 µM
  TGI: 3.17 µM
[45]
  GI50: 5.91 µM
  TGI: 27 µM
[46]
  GI50: 3.45 µM
  TGI: 12 µM
[47]
  GI50: 1.87 µM
  TGI: 3.61 µM
[48]
  GI50: 1.74 µM
  TGI: 3.3 µM
[49]
  GI50: 1.17 µM
  TGI: 5.22 µM
[50]
  GI50: 1.84 µM
  TGI: 3.73 µM
[51]
  GI50: 2.11 µM
  TGI: 4.73 µM

## CCCCCCCCCCNCCSS(=O)(=O)O
[1]
  GI50: 10.1 µM
  TGI: 25.4 µM
[2]
  GI50: 2.2 µM
  TGI: 5.7 µM
[3]
  GI50: 1.83 µM
  TGI: 3.65 µM
[4]
  GI50: 7.88 µM
  TGI: 22.4 µM
[5]
  GI50: 1.81 µM
  TGI: 3.38 µM
[6]
  GI50: 1.99 µM
  TGI: 4.12 µM
[7]
  GI50: 9.91 µM
  TGI: 24.4 µM
[52]
  GI50: 1.9 µM
  TGI: 4.49 µM
[8]
  GI50: 14.5 µM
  TGI: 33.3 µM
[53]
  GI50: 4.82 µM
  TGI: 17.6 µM
[9]
  GI50: 2.01 µM
  TGI: 3.85 µM
[54]
  GI50: 2.23 µM
  TGI: 4.22 µM
[10]
  GI50: 2.61 µM
  TGI: 7.28 µM
[11]
  GI50: 1.76 µM
  TGI: 3.74 µM
[12]
  GI50: 1.69 µM
  TGI: 3.26 µM
[13]
  GI50: 3.3 µM
  TGI: 12.9 µM
[14]
  GI50: 2.06 µM
  TGI: 4.92 µM
[15]
  GI50: 2.12 µM
  TGI: 4.68 µM
[16]
  GI50: 2.11 µM
  TGI: 4.37 µM
[17]
  GI50: 2.27 µM
  TGI: 4.24 µM
[18]
  GI50: 1.22 µM
  TGI: 2.52 µM
[19]
  GI50: 3.97 µM
  TGI: 17 µM
[20]
  GI50: 6.15 µM
  TGI: 21.8 µM
[21]
  GI50: 1.67 µM
  TGI: 3.6 µM
[22]
  GI50: 1.77 µM
  TGI: 3.69 µM
[23]
  GI50: 1.98 µM
  TGI: 3.46 µM
[24]
  GI50: 1.72 µM
  TGI: 3.24 µM
[25]
  GI50: 2.4 µM
  TGI: 6.63 µM
[26]
  GI50: 2.09 µM
  TGI: 4.31 µM
[55]
  GI50: 1.72 µM
  TGI: 3.22 µM
[27]
  GI50: 0.425 µM
  TGI: 2.64 µM
[28]
  GI50: 5.48 µM
  TGI: 19.9 µM
[29]
  GI50: 1.86 µM
  TGI: 3.58 µM
[30]
  GI50: 8.84 µM
  TGI: 25.7 µM
[31]
  GI50: 2.21 µM
  TGI: 4.79 µM
[32]
  GI50: 10.9 µM
  TGI: 29.5 µM
[33]
  GI50: 1.42 µM
  TGI: 3 µM
[56]
  GI50: 2.51 µM
  TGI: 5.16 µM
[35]
  GI50: 5.83 µM
  TGI: 19.6 µM
[36]
  GI50: 1.95 µM
  TGI: 4.32 µM
[37]
  GI50: 4.55 µM
  TGI: 14.3 µM
[38]
  GI50: 1.98 µM
  TGI: 4.07 µM
[39]
  GI50: 1.86 µM
  TGI: 3.6 µM
[40]
  GI50: 2.31 µM
  TGI: 5.21 µM
[41]
  GI50: 2.14 µM
  TGI: 5.59 µM
[42]
  GI50: 2.21 µM
  TGI: 3.91 µM
[43]
  GI50: 1.55 µM
  TGI: 2.95 µM
[44]
  GI50: 1.82 µM
  TGI: 3.28 µM
[45]
  GI50: 2.1 µM
  TGI: 5.27 µM
[46]
  GI50: 2.6 µM
  TGI: 7.58 µM
[47]
  GI50: 1.65 µM
  TGI: 4.84 µM
[48]
  GI50: 1.14 µM
  TGI: 2.91 µM
[49]
  GI50: 1.86 µM
  TGI: 3.98 µM
[50]
  GI50: 1.73 µM
  TGI: 3.19 µM
[51]
  GI50: 13 µM
  TGI: 27.2 µM
[57]
  GI50: 4.14 µM
  TGI: 19.2 µM
[58]
  GI50: 5.31 µM
  TGI: 17.7 µM
